According to the supplement of paper PMC10307832:

Experiments:
Assay in all cases: relative viability (nuclei count vs DMSO), 5 days (fraction); higher = more cells survive
[1] = compound: CC1=CC(=NN1)NC2=CC(=NC(=N2)/C=C/C3=CC=CC=C3)N4CCN(CC4)C + Cc1nc(Nc2ncc(C(=O)Nc3c(C)cccc3Cl)s2)cc(N2CCN(CCO)CC2)n1 [Dasatinib] (partner 0.075 µM)
Outline: (§1)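 Nuclei were stained with Hoechst during a one-step fixation (final 0.05% Triton X-100, 1% formaldehyde, 1 ug/ml Hoechst) carried out 5 days after dosing, then counted on 4× images. The cells, lung cancer lines in 1536-well plates, had been dosed by pin tool the day after seeding with one drug alone or a fixed anchor-drug dose plus five library-drug doses (not always all listed) in √10 steps. Relative viability is the nuclei count in treated wells divided by that in vehicle wells, and each value is the median of duplicate plates.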

Bortezomib + Lapatinib = compound: CC(C)C[C@H](NC(=O)[C@H](Cc1ccccc1)NC(=O)c1cnccn1)B(O)O [Bortezomib] + CS(=O)(=O)CCNCc1ccc(-c2ccc3ncnc(Nc4ccc(OCc5cccc(F)c5)c(Cl)c4)c3c2)o1 [Lapatinib] (partner 2 µM)
Outline: as §1

Bortezomib + Crizotinib = compound: CC(C)C[C@H](NC(=O)[C@H](Cc1ccccc1)NC(=O)c1cnccn1)B(O)O [Bortezomib] + C[C@@H](Oc1cc(-c2cnn(C3CCNCC3)c2)cnc1N)c1c(Cl)ccc(F)c1Cl [Crizotinib] (partner 1 µM)
Outline: as §1

[2] = compound: CC1=CC(=NN1)NC2=CC(=NC(=N2)/C=C/C3=CC=CC=C3)N4CCN(CC4)C + O=C(c1cc(Cc2n[nH]c(=O)c3ccccc23)ccc1F)N1CCN(C(=O)C2CC2)CC1 [Olaparib] (partner 8 µM)
Outline: as §1

Cell Line | relative viability ([1]; first compound 0.08 µM) | relative viability ([1]; first compound 0.253 µM) | relative viability ([1]; first compound 0.8 µM) | relative viability ([1]; first compound 2.53 µM) | relative viability ([1]; first compound 8 µM) | relative viability (Bortezomib + Lapatinib; first compound 0.0002 µM) | relative viability (Bortezomib + Lapatinib; first compound 0.000632 µM) | relative viability (Bortezomib + Lapatinib; first compound 0.002 µM) | relative viability (Bortezomib + Lapatinib; first compound 0.006325 µM) | relative viability (Bortezomib + Lapatinib; first compound 0.02 µM) | relative viability (Bortezomib + Crizotinib; first compound 0.000632 µM) | relative viability (Bortezomib + Crizotinib; first compound 0.002 µM) | relative viability (Bortezomib + Crizotinib; first compound 0.006325 µM) | relative viability (Bortezomib + Crizotinib; first compound 0.02 µM) | relative viability ([2]; first compound 0.08 µM) | relative viability ([2]; first compound 0.253 µM) | relative viability ([2]; first compound 0.8 µM) | relative viability ([2]; first compound 2.53 µM) | relative viability ([2]; first compound 8 µM) | relative viability (Bortezomib + Crizotinib; first compound 0.0002 µM)
LK-2 | 0.242 | 0.246 | 0.226 | 0.139 | 0.0998 | 0.804 | 0.922 | 0.498 | 0.204 | 0.232 | 0.243 | 0.277 | 0.207 | 0.222 | 0.699 | 0.772 | 0.684 | 0.29 | 0.0845 | –
LOU-NH91 | 0.576 | 0.614 | 0.61 | 0.448 | 0.302 | 0.795 | 0.704 | 0.454 | 0.334 | 0.287 | 0.708 | 0.342 | 0.314 | 0.319 | 0.871 | 0.958 | 0.926 | 0.875 | 0.385 | 0.749
LU99A | 0.546 | 0.547 | 0.475 | 0.22 | 0.146 | 0.939 | – | 1.11 | 0.811 | 0.171 | – | 0.561 | 0.274 | 0.153 | 0.275 | 0.244 | 0.266 | 0.182 | 0.103 | 0.592
LXF-289 | 0.258 | 0.26 | 0.187 | 0.0576 | 0.0234 | 0.908 | 0.871 | 0.949 | 0.115 | 0.104 | 0.795 | 0.896 | 0.0729 | 0.0698 | 1.05 | 1.04 | 0.87 | 0.411 | 0.055 | 0.809
NCI-H23 | 0.769 | 0.764 | 0.815 | 0.683 | 0.137 | – | 0.866 | 1.06 | 0.156 | 0.135 | 0.491 | 0.417 | 0.128 | 0.0919 | 0.303 | 0.325 | 0.224 | 0.134 | 0.108 | –
NCI-H322M | 0.268 | 0.254 | 0.228 | 0.206 | 0.209 | 0.573 | – | 0.523 | 0.541 | 0.393 | – | 0.99 | 0.985 | 0.36 | 0.662 | 0.762 | 0.742 | 0.486 | 0.281 | 0.977
NCI-H358 | 0.171 | 0.23 | 0.173 | 0.08 | 0.0626 | 0.367 | 0.431 | 0.43 | 0.144 | 0.155 | 0.56 | 0.503 | 0.126 | 0.113 | 0.505 | 0.644 | 0.486 | 0.209 | 0.068 | 0.63
NCI-H460 | 0.545 | 0.546 | 0.487 | 0.144 | 0.0157 | 0.879 | 0.975 | 1.03 | 0.0212 | 0.014 | 0.832 | 0.927 | 0.0481 | 0.0102 | 0.38 | 0.362 | 0.427 | 0.147 | 0.025 | 0.979
NCI-H520 | 0.202 | 0.194 | 0.166 | 0.143 | 0.118 | 0.91 | 0.857 | 0.271 | 0.108 | 0.128 | 0.759 | 0.894 | 0.102 | 0.102 | 0.3 | 0.332 | 0.307 | 0.152 | 0.104 | 0.913
NCI-H596 | 0.638 | 0.522 | 0.536 | 0.357 | 0.216 | 0.947 | 1 | 0.99 | 0.245 | 0.264 | 0.957 | 1.02 | 0.224 | 0.182 | 0.729 | 0.607 | 0.601 | 0.412 | 0.24 | 0.98
NCI-H647 | 0.185 | 0.186 | 0.2 | 0.0436 | 0.0226 | 1.05 | 1.05 | 0.711 | 0.0371 | 0.0208 | 0.954 | 0.627 | 0.0302 | 0.0195 | 0.524 | 0.521 | 0.493 | 0.0425 | 0.0194 | 0.993
NCI-H661 | 0.824 | 0.808 | 0.853 | 0.243 | 0.237 | 0.458 | 0.512 | 0.406 | 0.297 | 0.18 | 1.03 | 1.16 | 0.82 | 0.269 | 0.658 | 0.826 | 0.752 | 0.424 | 0.275 | 1.1
NCI-H727 | 0.372 | – | 0.407 | 0.257 | 0.186 | 0.654 | 0.872 | 0.864 | 0.229 | 0.113 | 0.864 | 0.91 | 0.155 | 0.0951 | 0.708 | 0.635 | 0.791 | 0.722 | 0.44 | 0.774
NCI-H838 | 0.3 | 0.279 | 0.247 | 0.255 | 0.141 | 0.897 | 0.982 | 0.936 | 0.121 | 0.114 | 0.811 | 0.916 | 0.348 | 0.123 | 0.752 | 0.749 | 0.564 | 0.139 | 0.0822 | 0.822
NCI-H1355 | 0.723 | 0.727 | 0.684 | 0.248 | 0.121 | 0.948 | 0.906 | 1.2 | 0.6 | 0.134 | 1.06 | 0.788 | 0.275 | 0.139 | 0.707 | 0.813 | 0.69 | 0.324 | 0.113 | 1.02
NCI-H1437 | 0.377 | 0.455 | 0.404 | 0.273 | 0.0967 | 0.655 | 0.878 | 0.806 | 0.0943 | 0.0863 | 0.894 | 0.92 | 0.0811 | 0.0914 | 0.603 | 0.664 | 0.631 | 0.416 | 0.138 | 0.966
NCI-H1650 | 0.376 | 0.288 | 0.37 | 0.125 | 0.0926 | 0.279 | 0.482 | 0.154 | 0.17 | 0.181 | 0.93 | 0.158 | 0.124 | 0.147 | 0.831 | 0.831 | 0.764 | 0.748 | 0.0952 | 0.973
